Like-named read-outs stand apart in the source and are kept apart here.
Biological target: T1, WT human CNGA3 plus WT CNGB3 heteromeric channels (Homo sapiens, UniProt Q16281+Q9NQW8)
T1 construct: expressed in transfected cells; host or cells: Xenopus laevis oocytes injected with cRNA transcribed from pGEMHE constructs
T1 sequence (Q16281 1-694): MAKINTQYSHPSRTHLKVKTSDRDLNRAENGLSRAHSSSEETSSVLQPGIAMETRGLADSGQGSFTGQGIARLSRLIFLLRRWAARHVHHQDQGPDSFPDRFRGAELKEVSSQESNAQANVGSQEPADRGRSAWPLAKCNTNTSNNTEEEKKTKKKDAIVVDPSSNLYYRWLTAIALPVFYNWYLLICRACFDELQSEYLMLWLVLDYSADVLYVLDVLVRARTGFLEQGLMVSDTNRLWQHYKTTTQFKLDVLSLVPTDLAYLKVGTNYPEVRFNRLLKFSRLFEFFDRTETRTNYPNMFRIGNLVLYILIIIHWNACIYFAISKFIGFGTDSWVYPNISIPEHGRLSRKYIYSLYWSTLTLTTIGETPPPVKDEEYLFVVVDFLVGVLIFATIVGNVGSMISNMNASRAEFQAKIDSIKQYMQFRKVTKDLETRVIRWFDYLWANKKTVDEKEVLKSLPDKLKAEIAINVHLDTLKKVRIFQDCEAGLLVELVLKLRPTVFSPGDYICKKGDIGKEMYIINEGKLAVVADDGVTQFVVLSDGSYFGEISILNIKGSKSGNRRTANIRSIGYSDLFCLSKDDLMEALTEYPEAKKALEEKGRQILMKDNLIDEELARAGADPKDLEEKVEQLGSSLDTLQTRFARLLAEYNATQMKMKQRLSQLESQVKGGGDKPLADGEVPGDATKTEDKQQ
T1 sequence (Q9NQW8 1-809): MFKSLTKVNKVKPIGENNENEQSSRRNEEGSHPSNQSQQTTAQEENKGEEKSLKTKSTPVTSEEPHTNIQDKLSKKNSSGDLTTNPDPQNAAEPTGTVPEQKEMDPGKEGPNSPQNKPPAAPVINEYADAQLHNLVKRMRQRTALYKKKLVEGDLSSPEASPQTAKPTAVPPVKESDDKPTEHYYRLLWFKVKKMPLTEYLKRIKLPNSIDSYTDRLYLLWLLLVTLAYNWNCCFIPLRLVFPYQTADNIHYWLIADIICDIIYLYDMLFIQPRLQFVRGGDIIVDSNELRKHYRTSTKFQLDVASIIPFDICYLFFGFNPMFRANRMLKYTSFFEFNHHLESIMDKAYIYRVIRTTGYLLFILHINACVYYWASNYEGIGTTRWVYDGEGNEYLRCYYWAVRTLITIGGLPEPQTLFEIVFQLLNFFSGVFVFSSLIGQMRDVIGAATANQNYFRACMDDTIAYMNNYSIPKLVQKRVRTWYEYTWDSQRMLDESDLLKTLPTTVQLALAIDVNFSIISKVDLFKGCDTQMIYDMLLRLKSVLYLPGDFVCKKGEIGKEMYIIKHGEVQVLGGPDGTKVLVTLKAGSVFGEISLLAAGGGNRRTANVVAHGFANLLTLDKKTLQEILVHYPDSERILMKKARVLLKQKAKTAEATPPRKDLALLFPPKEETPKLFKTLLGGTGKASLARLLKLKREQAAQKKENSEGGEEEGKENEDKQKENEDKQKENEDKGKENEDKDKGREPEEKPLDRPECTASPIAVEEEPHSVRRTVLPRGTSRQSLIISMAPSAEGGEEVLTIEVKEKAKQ
Assay: Inside-out patch-clamp recording of channels expressed in Xenopus oocytes (WT heteromeric)
Type: biochemical
Experimental: For heterologous expression in Xenopus laevis oocytes, identical amounts of cDNA were linearized using SphI or NheI, and capped cRNA was transcribed in vitro using the T-7 RNA polymerase mMESSAGE mMACHINE® kit (Ambion, Austin, TX). cRNA concentrations and relative amounts were determined by denaturing gel electrophoresis and KODAK 1D image analysis software (Rochester, NY), as well as by spectrophotometry. […] Oocytes were incubated in ND96 (96 mM NaCl, 2 mM KCl, 1.8 mM CaCl2, 1 mM MgCl2, and 5 mM HEPES, pH 7.6, supplemented with 10 μg/ml gentamycin).
Two to seven days after microinjection of cRNA, patch-clamp experiments were performed using the inside-out configuration with an Axopatch 200B amplifier (Axon Instruments, Foster City, CA). Recordings were made at 20–23 °C. Data were acquired using Pulse software (HEKA Elektronik, Lambrecht, Germany). Current traces were elicited by voltage steps from a holding potential of 0 mV to +80 mV, then to −80 mV and back to 0 mV. Initial pipette resistances were 0.4–0.8 megaohms. Intracellular and extracellular solutions contained 130 mM NaCl, 0.2 mM EDTA, and 3 mM HEPES (pH 7.2). Intracellular solutions were exchanged using an RSC-160 rapid solution changer (Molecular Kinetics, Indianapolis, IN). Currents in the absence of cyclic nucleotides were subtracted. For channel activation by CPT-cGMP or CPT-cAMP, dose–response data were fitted with the Hill equation, I/Imax=([cNMP]^h/(K1/2^h + [cNMP]^h)), where I is the current amplitude at +80 mV, Imax is the maximum current elicited by saturating concentration of ligand, [cNMP] is the ligand concentration, K1/2 is the apparent ligand affinity, and h is the Hill slope. We measured sensitivity to block by L-cis-diltiazem (RBI, Natick, MA) applied to the intracellular face of the patch in the presence of 0.1 μM CPT-cGMP. Data were fit with a modified Hill equation in the form I blocker/I=(K1/2^h/(K1/2^h + [blocker]^h)). Data were analyzed using Igor (Wavemetrics, Lake Oswego, OR), SigmaPlot, and SigmaStat (Systat Software Inc., San Jose, CA). All values are reported as the mean±standard error of the mean of n experiments unless otherwise indicated. Statistical significance was determined using a Student t test or Mann–Whitney rank sum test, and a p value of <0.05 was considered significant.

SMILES | relative agonist efficacy Imax, CPT-cAMP/Imax, CPT-cGMP (+80 mV, CPT-cAMP 100 μM vs CPT-cGMP 4 μM, mean±SEM, n=10) | Hill slope h, CPT-cAMP activation (Hill fit, mean±SEM, n=10) | EC50 (Hill fit, mean±SEM, n=10, read-out: apparent affinity K1/2, CPT-cAMP (channel activation)) [µM] | Hill slope h, CPT-cAMP, representative dose-response (representative patch, Figure 5A) | EC50 (representative patch, Figure 5A, read-out: K1/2,CPT-cAMP, representative dose-response) [µM] | Hill slope h, CPT-cGMP activation (+80 mV, Hill fit, mean±SEM, n=13) | EC50 (+80 mV, Hill fit, mean±SEM, n=13, read-out: apparent CPT-cGMP affinity K1/2, CPT-cGMP (channel activation)) [µM] | maximum patch current density (Imax/area) (+80 mV, saturating CPT-cGMP (4 μM), mean±SEM, n=13) [pA/μm^2] | Hill slope h, CPT-cGMP, representative dose-response (representative patch, Figure 1B) | EC50 (representative patch, Figure 1B, read-out: K1/2,CPT-cGMP, representative dose-response) [µM] | potency relative to unmodified cGMP for channel activation (unmodified cGMP values from refs 19, 26)
Nc1ncnc2c1nc(Sc1ccc(Cl)cc1)n2[C@@H]1O[C@@H]2COP(=O)(O)O[C@H]2[C@H]1O [CPT-cAMP, CPT-adenosine 3′,5′-cyclic monophosphate] | 0.25±0.03 | 1.7±0.1 | 28.1 ± 2.6 | 1.4 | 28.3 |  |  |  |  |  | 
Nc1nc2c(nc(Sc3ccc(Cl)cc3)n2[C@@H]2O[C@@H]3COP(=O)(O)O[C@H]3[C@H]2O)c(=O)[nH]1 [CPT-cGMP, 8-(4-chlorophenylthio) guanosine 3′,5′-cyclic monophosphate] |  |  |  |  |  | 1.5±0.05 | 0.254 ± 0.0181 | 55.1±10.9 | 1.5 | 0.248 | 80–100 fold

Reference: paper PMC3692405, “Disease-associated mutations in CNGB3 promote cytotoxicity in photoreceptor-derived cells” (Molecular Vision, 2013)
